What was measured:
Assay type in all cases: ADME, organism-based
[1] = Clearance in Lewis rat plasma at 0.5 mg/kg, iv; set-up: dose 0.5 mg/kg, route intravenous
[2] = Volume of distribution at steady state in Lewis rat at 0.5 mg/kg, iv; set-up: dose 0.5 mg/kg, route intravenous; details: in vivo, read-out: Vdss
[3] = Terminal half life in Lewis rat plasma at 0.5 mg/kg, iv; set-up: dose 0.5 mg/kg, route intravenous; details: read-out: beta t1/2 (converted)
[4] = Oral bioavailability in Lewis rat at […]; details: in vivo

clearance [1]: 6 mL/min/kg | Vd [2]: 0.6 L/kg | half-life [3]: 1.3 h | bioavailability [4]: 113%
SMILES: Cc1ccc(C(=O)NC2CC2)cc1-c1ccc(C(=O)NCC2CC2)cc1
